A short description of series [1]: Long-term stability tests of crystalline Compound A Form 1 (storage, HPLC purity and XRPD). The series is classed as physicochemical. Particulars: for Purity: HPLC. How it is done: (§1) XRPD analysis was carried out on a PANalytical X'pert Pro with PIXcel detector (128 channels), scanning the samples between 3 and 35° 2θ. The material was gently ground (where required) to release any agglomerates and loaded onto a multi-well plate with Kapton or Mylar polymer film to support the sample. The multi-well plate was then placed into the diffractometer and analyzed using Cu K radiation (α1 λ=1.54060 Å; α2 λ=1.54443 Å; β=1.39225 Å; α1:α2 ratio=0.5) running in transmission mode (step size 0.0130° 2θ, step time 18.87s) using 40 kV/40 mA generator settings. Data were visualized and images generated using the HighScore Plus 4.7 desktop application (PANalytical, 2017). Crystalline Compound A Form 1 was not changed after storage at 25° C/60%RH for 36 months or storage at 40° C/75%RH for 6 months. Purity was determined by HPLC analysis.

A short description of series [2]: Accelerated stability tests of crystalline Compound A Form 1 (storage, HPLC purity and XRPD). The format is physicochemical. As to conditions: 7 days; for Purity: HPLC. The protocol:
as §1, with “room temperature” for “25° C/60%RH”, “7 days, storage at 40° C./75% RH for 7 days,” for “36 months”, “80° C.” for “40° C/75%RH”, “7 days.” for “6 months.”

Where [3] appears, read: 25° C./60% RH (closed container), 3 months.
[4] abbreviates: 25° C./60% RH (closed container), 6 months.
[5] abbreviates: 25° C./60% RH (closed container), 12 months.
Where [6] appears, read: 25° C./60% RH (closed container), 24 months.
[7] abbreviates: 25° C./60% RH (closed container), 36 months.
Setting [8] is: 40° C./75% RH (closed container), 1 month.
Setting [9] is: 40° C./75% RH (closed container), 3 months.
The mark [10] stands for this setting: 40° C./75% RH (closed container), 6 months.

Entries after “also recorded” stand apart in the source; their conditions may differ.

In the case of `C[N+](C)(C)CCCCCn1c2ccc(Br)cc2c2cc(Br)ccc21.[Cl-]` [Compound A Form 1, 5-(3,6-dibromo-9H-carbazol-9-yl)-N,N,N-trimethylpentan-1-aminium chloride Form 1], the XRPD result in series [1] (setting [3]) is “Unchanged”; in series [1] (setting [4]), “Unchanged”; in series [1] (setting [5]), “Unchanged”; in series [1] (setting [6]), “Unchanged”; in series [1] (setting [7]), “not changed; also recorded: Unchanged”; in series [1] (setting [8]) it was “Unchanged”. The XRPD result in series [1] (setting [9]) was “Unchanged”; in series [1] (setting [10]) it was “not changed; also recorded: Unchanged”; in series [2] (40° C./75% RH (open vial)) it was “not changed; also recorded: Unchanged”; in series [2] (80° C. (closed vial)) it was “not changed; also recorded: Unchanged”; in series [2] (Room Temperature (open vial)), “not changed; also recorded: Unchanged”. Also, the Purity in series [1] (setting [3]), in series [1] (setting [4]), in series [1] (setting [5]), in series [1] (setting [6]), in series [1] (setting [7]) and in series [1] (setting [8]) was 99.7% in each case. Further, the Purity is recorded as 99.7% in series [1] (setting [9]); 99.8% in series [1] (setting [10]); 99.93% in series [2] (40° C./75% RH (open vial)); 99.93% in series [2] (80° C. (closed vial)); 99.93% in series [2] (Room Temperature (open vial)).

The record behind these values is US20240150289A1, “CRYSTALLINE CARBAZOLE DERIVATIVE” (Raziel Therapeutics Ltd., priority 2021, published 2024).
